Assay results reported in patent US20040265323A1, “Compositions comprising pathogen elicited epithelial chemoattractant (eicosanoid hepoxilin A3), inhibitors thereof and methods of use thereof” (priority 2003, published 2004).
“Also recorded” adds a separate entry of the source.

Experiments:
Type in all cases: cell-based, human
[1] = test system: PMN transmigration across T84 cell monolayers; assay: PMN transepithelial migration to imposed gradients of lipids across T84 monolayers; conditions: imposed gradients across T84 cell monolayers, basolateral-to-apical
Experimental: Crude preparations of PEEC were collected from the apical surface of polarized T84 cell monolayers following infection with S. typhimurium SL1344 as previously described (McCormick et al., 1998). For these experiments, T84 intestinal epithelial cells (passages 45 to 65) were grown in a 1:1 mixture of Dulbecco-Vogt modified Eagles medium and Ham's F-12 medium supplemented with 15 mM Hepes buffer (pH 7.5), 14 mM NaHCO3, 40 mg/liter penicillin, 8 mg/liter ampicillin, 90 mg/liter streptomycin and 5% newborn calf serum. Polarized monolayers of T84 cells were formed and maintained on 0.33 cm^2 ring-supported collagen-coated polycarbonate filters (Costar Corp., Cambridge, Mass.) as previously described (Madara et al., 1992) with recently detailed modifications (Dharmsathaphorn and Madara, 1990). T84 cell monolayers reached a steady-state resistance 4 to 6 days after plating with some variability largely related to cell passage number. Cell culture inserts of inverted monolayers, used to study transmigration of PMN in the physiological basolateral-to-apical direction, were constructed as previously described (Madara et al., 1992; Dharmsathaphorn and Madara, 1990; Nash et al., 1991).
(§1) It was further examined if hepoxilin A3 acts in a gradient fashion to drive PMN migration from the basolateral to the apical epithelial surface. For these experiments, the physiologically directed (basolateral-to-apical) PMN transepithelial migration assay using cell culture inserts of inverted T84 monolayers has been used (McCormick et al., 1993; Parkos et al., 1992). Human PMN were isolated from normal volunteers, as described elsewhere (Parkos et al., 1992; Henson and Oades, 1975). PMN transmigration results were represented as PMN cell equivalents (CE) derived from a daily standard PMN dilution curve. PMN which completely traversed the monolayer were represented as the number of PMN (CE/ml in a total volume of 1 ml). Values were expressed as the mean and SD of an individual experiment done in triplicate repeated at least 3 times.
Arachidonic acid is the initial substrate used by a variety of metabolic pathways involving lipoxygenase (LO) activities—enzymes that add hydroxyl groups at specific carbon atoms of this 20-carbon fatty acid. […] Therefore, in addition to hepoxilin A3, a wide range of arachidonic acid metabolites for their ability to incite the transmigration of PMNs across T84 monolayers in vitro was examined (Table 1). […] This is consistent with previous reports that LTB4 is capable of inducing PMN transmigration.

PMN [2] = assay: PMN intracellular Ca2+ mobilization; conditions: 5 μg/ml, FIG. 4B
Description: Further, crude PEEC preparations were collected from postinfected T84 cells monolayers. Samples were first passed through an Amicon ultra-filtration apparatus (Millipore Corp.; Bedford, Mass.) fitted with a 2,000 Da cut-off membrane. Filtrate components were bound to a Backerbond spe™ octadecyl extraction column (J. T. Baker; Philipsburg, N.J.) that was subsequently eluted with water, hexane, and finally methanol. The methanol fraction was dried under vacuum and resuspended in 50:50 (vol:vol) methanol:2 mM Tris HCl (pH 7.5) and injected onto a Vydac C18 (10 μm; 300 Å) semi-preparative column ([…]) equilibrated with 2 mM Tris-HCl (pH 7.5). A methanol gradient of 1-10% over 10 minutes, then 10-60% over 25 minutes, followed by 60-100% over 45 minutes (all at room temperature) was used to isolate active PEEC fractions. Active fractions, having no detectable absorbance at 280 nm and weak absorbance at 214 nm, were analyzed using a Genesis C18 (4 μm, 120 Å) analytical HPLC column (4.6×150 mm) equilibrated with 5 mM triethylamine/acetic acid (pH 7.2). […] (FIG. 2A and B).
(§2) To substantiate the notion that hepoxilin A3 was in fact the molecule responsible for PEEC bioactivity, it was examined whether synthetic hepoxilin A3 (BIOMOL, Plymouth Meeting, Pa.) could recapitulate PEEC bioactivity. […] Thus, authentic hepoxilin A3 recapitulates all known aspects of PEEC bioactivity consistent with the notion that hepoxilin A3 is in fact PEEC's active component.

PMN [3] = assay: PMN degranulation assessed by elastase release
Description: as §2

IL-8 secretion = IL-8 secretion by S. typhimurium infected T84 cell monolayers; conditions: S. typhimurium infected T84, caffeic acid 22 μM
[4] = test system: S. typhimurium-induced PMN transepithelial migration, T84 cells; assay: Inhibition of S. typhimurium-induced PMN transepithelial migration across T84 monolayers; conditions: for inhibition of S. typhimurium-induced PMN transepithelial migration: T84 incubated 1 hour with inhibitor, FIG. 9
Description: as §1, with “PMN transmigration results were represented as PMN cell equivalents (CE) derived from a daily standard PMN dilution curve.” left out
Hepoxilin A3 is formed via the 12-lipoxygenase (LO) metabolism pathway of arachidonic acid. Therefore, the involvement of the 12-LO pathway in the ability of the enteric pathogen, S. typhimurium, to induce PMN transepithelial migration and elicit PEEC secretion was tested. […] For 12-LO inhibition, HBSS(+)-washed T84 cell monolayers were incubated in the presence baicalein [stock concentration at 1 mM in DMSO] for 48 hours at 37° C. Subsequently, S. typhimurium SL1344 was added to the apical surface of the T84 monolayers and after an incubation of 1 hour at 37° C., the cells were washed free of non-adherent bacteria and then processed for the PMN transmigration assay. […] For 5-LO inhibition, the T84 cells were washed with HBSS(+) and then were incubated for 24 hours in the presence of caffeic acid (stock concentration at 22 mM in DMSO). Both inhibitors were purchased form Biomol, Plymouth Meeting, Pa.
In each instance, the T84 cell monolayers were incubated for […] in the presence of the inhibitor prior to the addition of S. typhimurium.

[5] = test system: PEEC/hepoxilin A3 secretion; assay: Apical PEEC/hepoxilin A3 release from S. typhimurium infected T84 cell monolayers
Description: T84 cell monolayers were infected with S. typhimurium in the absence or presence of the 12-LO enzyme inhibitor and apical supernatants were examined for PEEC bioactivity. […] Moreover, since it had been previously shown that S. typhimurium via its effector SipA initiates an ARF6-dependent lipid-signaling cascade that directs the activation of PKC and release of PEEC, it was further examined if blocking PKC activity (which would occur upstream of 12-LO) also corresponds with a reduction in hepoxilin A3 bioactivity and release, as one would predict.

**Q.** `CCCCC/C=C\C[C@@H](O)/C=C/C=C/C=C/[C@@H](O)CCCC(=O)O` (relative stereo) [trans LTB4] was tested. Which “PMN transepithelial migration (PEEC activity) induced by added lipid” value (from here on “PMN transepithelial migration … by added lipid”) [1] did it give?
**A.** failed to support events observed with hepoxilin A3

**Q.** For `CCCCC/C=C\C/C=C\C/C=C\C=C\C(=O)CCCC(=O)O` [5-KETE], which “PMN transepithelial migration … by added lipid” value [1] is on record?
**A.** failed to effect a transmigration of PMNs

**Q.** With `CCCCC/C=C\C[C@@H](O)/C=C/C=C\C/C=C\CCCC(=O)O` [12(R)-HETE] as the compound, how does the “PMN transepithelial migration … by added lipid” value [1] read?
**A.** no PMN transmigration activity was observed

**Q.** And the “intracellular Ca2+ in PMN” value (PMN [2])?
**A.** failed to cause an increase in Ca^2+ mobilization

**Q.** Which “PMN transepithelial migration … by added lipid” value [1] does the source give for `CCCCC/C=C\C[C@H](O)/C=C/C=C\C/C=C\CCCC(=O)O` [12(S)-HETE] here?
**A.** no PMN transmigration activity was observed

**Q.** With `CCCCC[C@H](O)/C=C/C=C\C/C=C\C/C=C\CCCC(=O)O` [15(S)-HETE] as the compound, how does the “PMN transepithelial migration … by added lipid” value [1] read?
**A.** only a low activity of PMN transmigration was observed

**Q.** With `CCCCC/C=C\C/C=C\C/C=C\C/C=C\CCCC(=O)O` [Arachidonic acid] as the compound, how does the “PMN transepithelial migration … by added lipid” value [1] read?
**A.** could enhance the amount of PMN transmigration

**Q.** For `CCCCC/C=C\C[C@@H](O)/C=C/C=C/C=C\[C@@H](O)CCCC(=O)O` [LTB4], which PMN degranulation (PMN [3]) is on record?
**A.** causes activation and degranulation

**Q.** How did the IL-8 secretion (IL-8 secretion) turn out when `O=C(O)/C=C/c1ccc(O)c(O)c1` [caffeic acid] was run?
**A.** 558 ± 26 pg/mL

**Q.** What about the “S. typhimurium-induced PMN transepithelial migration with lipoxygenase inhibitor” value ([4]; T84 pre-treated: baicalein 48 hours, caffeic acid 24 hours) of the same compound?
**A.** failed to prevent S. typhimurium-induced PMN transepithelial migration; also recorded: no inhibition

**Q.** With `COc1ccc2c(c[n+](C)c3c4cc5c(cc4ccc23)OCO5)c1OC.[Cl-]` [chelerethyrine chloride] as the compound, how does the “PEEC/hepoxilin A3 release” value ([5]; 5 μM prior to infection with wild-type S. typhimurium) read?
**A.** < 1.0 pmol

**Q.** With `C=C(CC)C(=O)c1ccc(OCC(=O)O)c(Cl)c1Cl` [ethacrynic acid] as the compound, how does the “inhibition of S. typhimurium-induced PMN transepithelial migration” value [4] read?
**A.** significantly inhibited

**Q.** `CCCCC/C=C\C[C@@H]1O[C@H]1C(O)/C=C\C/C=C\CCCC(=O)O` (stereo partly shown) [hepoxilin B3] was tested. Which “PMN transepithelial migration … by added lipid” value [1] did it give?
**A.** inactive; also recorded: failed to support events observed with hepoxilin A3

**Q.** For `CCCCC/C=C\C/C=C\CCCCCCCC(=O)O` [linoleic acid], which “PMN transepithelial migration … by added lipid” value [1] is on record?
**A.** failed to demonstrate any PEEC activity

**Q.** For `CCCN(CCC)S(=O)(=O)c1ccc(C(=O)O)cc1` [probenecid], which “inhibition of S. typhimurium-induced PMN transepithelial migration” value [4] is on record?
**A.** significantly inhibited

**Q.** With `CC[C@]1(O)C[C@@H]2CN(CCc3c([nH]c4ccccc34)[C@@](C(=O)OC)(c3cc4c(cc3OC)N(C)[C@H]3[C@@](O)(C(=O)OC)[C@H](OC(C)=O)[C@]5(CC)C=CCN6CC[C@]43[C@@H]65)C2)C1` [vinblastine] as the compound, how does the inhibition at 0.0005 µM ([5]; Homo sapiens, ~0.5 nM, pathogen-induced, T84, read-out: inhibition of hepoxilin A3 secreted) read?
**A.** ~60%
